In assay [1] the target is Protein cereblon/Histone deacetylase 8 (Homo sapiens, UniProt Q9BY41+Q96SW2). As to the kind of experiment: PROTAC activity at CRBN/HDAC8 in human Jurkat T cells assessed as induction of degradation of HDAC8 by Western blot analysis. Type of assay: cell-based. Background: In western blotting, separated proteins are transferred to a membrane and probed.
Assay [2] deals with Programmed cell death protein 1/Programmed cell death 1 ligand 1 (Homo sapiens, UniProt Q15116+Q9NZQ7). As to the kind of experiment: Inhibition of PD-1/PDL1 interaction (unknown origin) in by HTRF assay. The class given is protein-complex assay.
Chain of Programmed cell death protein 1/Programmed cell death 1 ligand 1 (Q15116 whole entry): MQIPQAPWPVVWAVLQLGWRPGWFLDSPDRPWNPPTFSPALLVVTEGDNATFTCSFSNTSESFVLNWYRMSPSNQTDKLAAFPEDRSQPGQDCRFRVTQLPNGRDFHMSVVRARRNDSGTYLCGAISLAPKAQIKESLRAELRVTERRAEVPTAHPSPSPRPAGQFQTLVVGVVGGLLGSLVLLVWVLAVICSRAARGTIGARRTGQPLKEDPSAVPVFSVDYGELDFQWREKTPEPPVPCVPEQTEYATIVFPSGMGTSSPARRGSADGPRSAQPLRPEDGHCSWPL
Chain of Programmed cell death protein 1/Programmed cell death 1 ligand 1 (Q9NZQ7 whole entry): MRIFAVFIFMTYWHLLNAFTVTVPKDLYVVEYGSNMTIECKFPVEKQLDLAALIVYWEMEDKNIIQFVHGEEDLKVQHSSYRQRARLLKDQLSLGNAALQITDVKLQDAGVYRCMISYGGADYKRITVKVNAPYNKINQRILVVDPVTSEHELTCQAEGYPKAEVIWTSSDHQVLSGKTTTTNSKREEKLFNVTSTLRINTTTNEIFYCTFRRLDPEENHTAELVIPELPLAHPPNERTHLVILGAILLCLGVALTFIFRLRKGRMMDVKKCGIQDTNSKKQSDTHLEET
Assay [3] addresses T1, Protein cereblon/Protein deacetylase HDAC6 (Homo sapiens, UniProt Q9UBN7+Q96SW2). Briefly: PROTAC activity at CRBN/HDAC6 in human MM1.S cells assessed as HDAC6 degradation. The class given is cell-based.
Target sequence in this assay (Q9UBN7 whole entry): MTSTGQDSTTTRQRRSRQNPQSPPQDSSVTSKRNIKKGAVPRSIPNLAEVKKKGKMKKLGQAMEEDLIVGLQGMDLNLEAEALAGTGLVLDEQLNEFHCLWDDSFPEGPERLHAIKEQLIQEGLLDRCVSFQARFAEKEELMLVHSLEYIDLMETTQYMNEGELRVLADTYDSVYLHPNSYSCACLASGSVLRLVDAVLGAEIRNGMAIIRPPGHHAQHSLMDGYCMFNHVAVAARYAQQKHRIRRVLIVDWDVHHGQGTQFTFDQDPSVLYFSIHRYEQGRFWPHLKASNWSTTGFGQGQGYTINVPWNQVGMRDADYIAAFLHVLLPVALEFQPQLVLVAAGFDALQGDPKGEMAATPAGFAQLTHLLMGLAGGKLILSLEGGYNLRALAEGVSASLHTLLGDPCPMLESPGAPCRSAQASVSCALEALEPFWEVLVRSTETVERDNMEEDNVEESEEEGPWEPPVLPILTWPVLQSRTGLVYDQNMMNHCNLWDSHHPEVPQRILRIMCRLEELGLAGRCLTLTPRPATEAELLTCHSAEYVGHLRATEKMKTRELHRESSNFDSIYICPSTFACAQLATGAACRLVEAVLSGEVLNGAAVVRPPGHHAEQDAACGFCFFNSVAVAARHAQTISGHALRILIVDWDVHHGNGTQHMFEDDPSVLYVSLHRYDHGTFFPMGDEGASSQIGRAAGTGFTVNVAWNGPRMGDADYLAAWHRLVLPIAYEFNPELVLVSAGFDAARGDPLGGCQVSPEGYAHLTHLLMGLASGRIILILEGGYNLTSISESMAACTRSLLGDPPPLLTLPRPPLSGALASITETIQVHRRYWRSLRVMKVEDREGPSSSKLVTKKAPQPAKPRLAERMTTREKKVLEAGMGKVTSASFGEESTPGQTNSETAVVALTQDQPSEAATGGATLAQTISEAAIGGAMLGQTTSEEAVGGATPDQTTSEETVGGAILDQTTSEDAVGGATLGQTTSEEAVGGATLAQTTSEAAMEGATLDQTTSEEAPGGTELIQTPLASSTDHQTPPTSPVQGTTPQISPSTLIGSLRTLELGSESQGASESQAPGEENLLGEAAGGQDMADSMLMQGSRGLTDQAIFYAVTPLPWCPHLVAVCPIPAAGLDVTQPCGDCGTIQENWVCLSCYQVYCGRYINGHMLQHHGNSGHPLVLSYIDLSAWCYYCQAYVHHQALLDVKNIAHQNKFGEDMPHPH
Target sequence in this assay (Q96SW2 whole entry): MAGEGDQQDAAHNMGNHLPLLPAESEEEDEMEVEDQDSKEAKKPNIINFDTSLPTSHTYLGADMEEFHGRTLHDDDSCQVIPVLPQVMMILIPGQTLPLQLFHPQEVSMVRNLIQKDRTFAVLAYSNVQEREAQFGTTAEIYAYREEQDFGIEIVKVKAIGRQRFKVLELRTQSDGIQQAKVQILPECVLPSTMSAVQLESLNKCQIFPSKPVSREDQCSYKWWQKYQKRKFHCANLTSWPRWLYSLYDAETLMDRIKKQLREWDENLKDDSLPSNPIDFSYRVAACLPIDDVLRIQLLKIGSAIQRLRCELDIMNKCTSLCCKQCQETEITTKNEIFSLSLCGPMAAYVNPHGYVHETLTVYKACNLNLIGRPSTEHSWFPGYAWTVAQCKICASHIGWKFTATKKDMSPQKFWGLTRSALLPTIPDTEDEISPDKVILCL
Assay [4] has as its target T1, Protein cereblon/Protein deacetylase HDAC6. Briefly: PROTAC activity at CRBN/HDAC6 in human HL-60 cells assessed as HDAC6 degradation. Type of assay: cell-based.
Target sequence in this assay (Q9UBN7 whole entry): as the sequence (Q9UBN7 whole entry) above
Target sequence in this assay (Q96SW2 whole entry): as the sequence (Q96SW2 whole entry) above
Assay [5] shares this target. As to the kind of experiment: PROTAC activity at CRBN/HDAC6 in human HL-60 cells assessed as HDAC6 degradation by measuring maximum efficacy relative to control. The class given is cell-based.
Target sequence in this assay (Q96SW2 whole entry, looked up): as the sequence (Q96SW2 whole entry) above
Target sequence in this assay (Q9UBN7 whole entry, looked up): as the sequence (Q9UBN7 whole entry) above
Assay [6] is described as follows: Inhibition of LSD1/HDAC1/CoREST complex (unknown origin) using Boc-(Ac)Lys-AMC as substrate measured after 20 mins by fluorescence based analysis. The arrangement: species or system Homo sapiens.
Assay [7] is described as follows: Inhibition of LSD1/HDAC2/CoREST complex (unknown origin) using Boc-(Ac)Lys-AMC as substrate measured after 20 mins by fluorescence based analysis. Also noted: species or system Homo sapiens.
A short description of assay [8]: Inhibition of LSD1/HDAC3/CoREST complex (unknown origin) using Boc-(Ac)Lys-AMC as substrate measured after 20 mins by fluorescence based analysis. The arrangement: species or system Homo sapiens.
The target in assay [9] is T2, von Hippel-Lindau disease tumor suppressor/Histone deacetylase 1 (Homo sapiens, UniProt Q13547+P40337). As to the kind of experiment: PROTAC activity at VHL/HDAC1 in human HCT-116 cells assessed as degradation of HDAC1 incubated for 24 hrs by Western blot analysis. Type of assay: cell-based.
Assay [10] addresses T3, von Hippel-Lindau disease tumor suppressor/Histone deacetylase 2 (Homo sapiens, UniProt Q92769+P40337). Briefly: PROTAC activity at VHL/HDAC2 in human HCT-116 cells assessed as degradation of HDAC2 incubated for 24 hrs by Western blot analysis. The class given is cell-based.
Assay [11] has as its target T4, von Hippel-Lindau disease tumor suppressor/Histone deacetylase 3 (Homo sapiens, UniProt O15379+P40337). Briefly: PROTAC activity at VHL/HDAC3 in human HCT-116 cells assessed as degradation of HDAC3 incubated for 24 hrs by Western blot analysis. Type of assay: cell-based.
The target in assay [12] is T1, Protein cereblon/Protein deacetylase HDAC6. Briefly: PROTAC activity at CRBN/HDAC6 in human MINO cells assessed as HDAC6 degradation incubated for 18 hrs by immunoblot analysis. Type of assay: cell-based.
Target sequence in this assay (Q9UBN7 whole entry): as above
Target sequence in this assay (Q96SW2 whole entry): as the sequence (Q96SW2 whole entry) above
Assay [13] has the same target. As to the kind of experiment: PROTAC activity at CRBN/HDAC6 in human JeKo-1 cells assessed as HDAC6 degradation incubated for 18 hrs by immunoblot analysis. Type of assay: cell-based.
Target sequence in this assay (Q9UBN7 whole entry): as the sequence (Q9UBN7 whole entry) above
Target sequence in this assay (Q96SW2 whole entry): as the sequence (Q96SW2 whole entry) above
Assay [14] has the same target. As to the kind of experiment: PROTAC activity at CRBN/HDAC6 in human HUVEC cells assessed as HDAC6 degradation incubated for 18 hrs by immunoblot analysis. The class given is cell-based.
Target sequence in this assay (Q9UBN7 whole entry): as the sequence (Q9UBN7 whole entry) above
Target sequence in this assay (Q96SW2 whole entry): as the sequence (Q96SW2 whole entry) above
For assay [15] the target is unchanged. As to the kind of experiment: PROTAC activity at CRBN/HDAC6 in human MDA-MB-231 cells assessed as HDAC6 degradation incubated for 18 hrs by immunoblot analysis. Type of assay: cell-based.
Target sequence in this assay (Q9UBN7 whole entry): as the sequence (Q9UBN7 whole entry) above
Target sequence in this assay (Q96SW2 whole entry): as the sequence (Q96SW2 whole entry) above
Assay [16] shares this target. As to the kind of experiment: PROTAC activity at CRBN/HDAC6 in human MM1.S cells assessed as HDAC6 degradation incubated for 18 hrs by immunoblot analysis. Type of assay: cell-based.
The target is the same in assay [17]. As to the kind of experiment: PROTAC activity at CRBN/HDAC6 in human MM1.S cells assessed as HDAC6 degradation by measuring maximum efficacy incubated for 18 hrs by immunoblot analysis relative to control. Type of assay: cell-based.
Target sequence in this assay (Q96SW2 whole entry, looked up): as the sequence (Q96SW2 whole entry) above
Target sequence in this assay (Q9UBN7 whole entry, looked up): as the sequence (Q9UBN7 whole entry) above
For assay [18], the target named is T2, von Hippel-Lindau disease tumor suppressor/Histone deacetylase 1. Briefly: PROTAC activity at VHL/HDAC1 in human HCT-116 cells assessed as degradation of HDAC1 incubated for 24 hrs by immunoblot analysis. Type of assay: cell-based.
Assay [19] has the same target. As to the kind of experiment: PROTAC activity at VHL/HDAC1 in human HCT-116 cells assessed as degradation of HDAC1 by measuring maximum efficacy incubated for 24 hrs by immunoblot analysis relative to control. Type of assay: cell-based.
The target in assay [20] is T3, von Hippel-Lindau disease tumor suppressor/Histone deacetylase 2. As to the kind of experiment: PROTAC activity at VHL/HDAC2 in human HCT-116 cells assessed as degradation of HDAC2 by measuring maximum efficacy incubated for 24 hrs by immunoblot analysis relative to control. The class given is cell-based.
The target of assay [21] is T1, Protein cereblon/Protein deacetylase HDAC6. As to the kind of experiment: PROTAC activity at CRBN/HDAC6 in human MM1.S cells assessed as induction of degradation of HDAC6. Type of assay: cell-based.
For assay [22] the target is unchanged. Briefly: PROTAC activity at CRBN/HDAC6 in human MM1.S cells assessed as induction of degradation of HDAC6 by measuring maximum efficacy relative to control. Type of assay: cell-based.
Target sequence in this assay (Q96SW2 whole entry, looked up): as the sequence (Q96SW2 whole entry) above
Target sequence in this assay (Q9UBN7 whole entry, looked up): as the sequence (Q9UBN7 whole entry) above
For assay [23], the target named is T4, von Hippel-Lindau disease tumor suppressor/Histone deacetylase 3. As to the kind of experiment: Protac activity at VHL/HDAC3 in human MDA-MB-468 cells assessed as HDAC3 degradation measured after 14 hrs by Western blot analysis. Type of assay: cell-based.
Assay [24] concerns MDA-MB-468. As to the kind of experiment: Antiproliferative activity against human MDA-MB-468 cells. Type of assay: functional, cell-based.

Regarding `COc1cc(C(=O)NO)ccc1NCc1ccc(OCc2cn(CCCCCC(=O)Nc3cccc4c3C(=O)N(C3CCC(=O)NC3=O)C4=O)nn2)cc1` (stereo not drawn), in assay [1], the DC50 (commonly the midpoint of the concentration-degradation curve) turned out to be 250 nM.
`Cc1c(COc2ccc(CNCCC(=O)NO)c(F)c2)cccc1-c1ccccc1`: the half-maximal inhibitory concentration (IC50) – broadly, the concentration that inhibits the measured activity by half – in [2] was found to be 120 nM.
Take `Cc1nc2cc(NC(=O)CCCCCCCNC(=O)COc3cccc4c3C(=O)N(C3CCC(=O)NC3=O)C4=O)ccc2n1Cc1ccc(C(=O)NO)cc1F` (stereo not drawn): the DC50 in assay [3] was determined as 3.8 nM; in [4], 19.4 nM. Moreover, in assay [5], the maximal response (Emax) (usually the size of the effect at its maximum, as opposed to the concentration needed) was determined as 92.2%.
As to `Cc1ncsc1-c1ccc(CNC(=O)[C@H]2C[C@H](O)CN2C(=O)[C@H](NC(=O)CCCCCCCCCCC(=O)Nc2ccc(C(=O)Nc3ccccc3N)cc2)C(C)(C)C)cc1`, the IC50 in [6], in assay [7] and in assay [8] was 16800 nM each time. Further, the DC50 in assay [9], in assay [10] and in [11] was 1000 nM throughout.
Take `COc1cc(OCc2cccc(-c3ccccc3)c2C)cc(OC)c1CNCCCCCCC(=O)NO`: the half-maximal inhibitory concentration (IC50) in assay [2] was determined as 85 nM.
`CCCCN(Cc1ccc(C(=O)NO)cc1)C(=O)Nc1ccc(OCCCCCCCn2cc(CCCCCNc3cccc4c3C(=O)N(C3CCC(=O)NC3=O)C4=O)nn2)cc1` (stereo not drawn): the DC50 came out at 3.2 nM in assay [12]; 3.2 nM in [13]; 3.2 nM in [14]; 3.2 nM in assay [15]; 1.6 nM in assay [16]. Further, the Emax in assay [17] worked out at 86%.
In assay [2], `Cc1c(COc2ccc(CNCCCCCC(=O)NO)c(F)c2)cccc1-c1ccccc1` displayed an IC50 of 62 nM.
Consider `Cc1ncsc1-c1ccc(CNC(=O)[C@H]2C[C@H](O)CN2C(=O)[C@H](NC(=O)CCn2cc(CCCOC(=O)NCc3ccc(C(=O)Nc4ccc(F)cc4N)cc3)nn2)C(C)(C)C)cc1`, for which the DC50 in assay [18] came to 2840 nM. The Emax in [19] and in assay [20] was 62% throughout.
In the case of `CCCCN(Cc1ccc(C(=O)NO)cc1)C(=O)Nc1ccc(NC(=O)CCCCCc2cn(CCOCCNc3cccc4c3C(=O)N(C3CCC(=O)NC3=O)C4=O)nn2)cc1` (stereo not drawn), the 50% degradation concentration (DC50) in assay [21] is 1.6 nM. The Emax in assay [22] came out at 86%.
For `CCCNNC(=O)c1ccc(-c2ccc(NC(=O)CCCCCCC(=O)N[C@H](C(=O)N3C[C@H](O)C[C@H]3C(=O)N[C@H](C)c3ccc(-c4scnc4C)cc3)C(C)(C)C)cc2)cc1`, the DC50 in assay [23] was found to be 42 nM. The midpoint of inhibition in assay [24], the IC50, lay at 52 nM.
In assay [2], `COc1cc(OCc2cccc(-c3ccccc3)c2C)cc(OC)c1CN(C)CCCC(=O)NO` came in with an IC50 of 104 nM.
Still for that read-out and setting: the value for `Cc1c(COc2ccc(CNCCC(=O)NO)c(OCc3cccc(C#N)c3)c2)cccc1-c1ccccc1` was 82 nM.

The values are drawn from ChEMBL document CHEMBL5512609, “HDAC-targeting epigenetic modulators for cancer immunotherapy” (Eur J Med Chem, 2024).
